Values of other authors in US6284774A, “4-Benzyl piperidine alkylsulfoxide heterocycles and their use as subtype-selective NMDA receptor antagonists” (priority 2000, dated 2001).

Experiments:
[1] = at plasma levels leading to NMDA receptor antagonism; cited from earlier work
[2] = system: d-amphetamine-induced stimulation; details: injected into rat nucleus accumbens vs striatum; cited from earlier work
[3] = variety of animal models highly predictive of human anxiety; cited from earlier work
[4] = system: smooth muscle of the airway; details: cited from earlier work

| SMILES | antiparkinsonian-like activity [1] | antagonism of d-amphetamine-induced stimulation [2] | also measured |
| --- | --- | --- | --- |
| CC12CC3CC(C)(C1)CC(N)(C3)C2 [memantine] | showed antiparkinsonian-like activity in animals |  |  |
| N[C@@H]1CCN(O)C1=O [(+) HA-966] |  | selectively antagonize d-amphetamine-induced stimulation when injected into rat nucleus accumbens but not in striatum |  |
| O=C(O)c1cc(O)c2c(Cl)cc(Cl)cc2n1 [5,7-dichlorokynurenic acid] |  | selectively antagonize d-amphetamine-induced stimulation when injected into rat nucleus accumbens but not in striatum |  |
| NC12CC3CC(CC(C3)C1)C2 [amantadine] | showed antiparkinsonian-like activity in animals |  |  |
| C[C@]12N[C@H](Cc3ccccc31)c1ccccc12 [MK801] |  |  | effectiveness in animal models of anxiety [3]: effective in a variety of animal models of anxiety |
| CNC1(c2ccccc2Cl)CCCCC1=O (stereo not drawn) [ketamine] |  |  | ability to relax the smooth muscle of the airway [4]: relax the smooth muscle of the airway |
